Converted amounts (≈) assume the structure as drawn. Read-outs that look alike come from different tables or passages of the source.
Columns and labels:
Type in all cases: cell-based
[1] = test system: Vancomycin-Sensitive Enterococci faecalis (VSE, ATCC 29212); assay: microbe, parasite or virus in culture
Protocol: (§1) See, Balouiri, M.; Sadiki, M.; Ibnsouda, S. K.; Methods for In vitro evaluation of antimicrobial activity: review. Journal of Pharmaceutical Analysis, 2016, 6 (2), 71-79; CLSI, Methods for Dilution Antimicrobial Susceptibility Tests for Bacteria that Grow Aerobically, Approved Standard, 9th Ed, CLSI document M07-A9. Approximately 50 μl of the bacterial (MRSA or MSSA) cell suspension (1.0×10^6/ml) inoculated in each well (96-micro well plate) containing 50 μl of dosing solution and plates were incubated at 37±+1C for 18 hrs. After the incubation, bacterial growth in each well of 96-well plate were calorimetrically measured by a Biotek microtiter plate reader at 630 nm. The bacterial growth inhibition (GI) is expressed as a percentage relative to the negative control.
Vancomycin-Sensitive Enterococci faecalis (VSE, ATCC 29212);

[2] = test system: Vancomycin-Sensitive Enterococci hirae (VSE, ATCC 1056); assay: microbe, parasite or virus in culture
Protocol: as §1
Vancomycin-Sensitive Enterococci hirae (VSE, ATCC 1056).

[3] = test system: Vancomycin-Resistant Enterococci faecalis (VRE, ATCC 51299); assay: microbe, parasite or virus in culture
Protocol: as §1
(§2) Vancomycin-Resistant Enterococci faecalis (VRE, ATCC 51299);

[4] = test system: Vancomycin-Resistant Enterococci faecium (VRE, ATCC 700221); assay: microbe, parasite or virus in culture
Protocol: as §1
(§3) Vancomycin-Resistant Enterococci faecium (VRE, ATCC 700221);

[5] = test system: Methicillin-Resistant Staphylococcus aureus (MRSA, PBR Lab Culture#1152); assay: microbe, parasite or virus in culture; conditions: Test B, read-out: Minimum Inhibitory Concentration (MIC) MRSA (PBR1152)
Protocol: as §1
Methicillin-Resistant Staphylococcus aureus (MRSA, PBR Lab Culture#1152)

[6] = test system: Methicillin-Resistant Staphylococcus aureus (MRSA, ATCC33591); assay: microbe, parasite or virus in culture; conditions: for potency relative to daptomycin against MRSA: fold as potent as daptomycin
Protocol: as §1
Methicillin-Resistant Staphylococcus aureus (MRSA, ATCC33591)

[7] = test system: Methicillin-Sensitive Staphylococcus aureus (MSSA, ATCC6538); assay: microbe, parasite or virus in culture; conditions: read-out: Minimum Inhibitory Concentration (MIC) MSSA (ATCC6538)
Protocol: as §1
Methicillin-Sensitive Staphylococcus aureus (MSSA, ATCC6538)

[8] = test system: Vancomycin-Resistant Enterococci (VRE); assay: Potency against VRE relative to daptomycin (Test C); conditions: fold better potency; strain not specified
Protocol: as §1, §3, §2

| Minimum Inhibitory Concentration (MIC) VSE (ATCC 29212) [1] [µM] | Minimum Inhibitory Concentration (MIC) VSE (ATCC 1056) [2] [µM] | Minimum Inhibitory Concentration (MIC) VRE (ATCC 51299) [3] [µM] | Minimum Inhibitory Concentration (MIC) VRE (ATCC 700221) [4] [µM] | Structure (SMILES) | other results |
| --- | --- | --- | --- | --- | --- |
| <0.156 | 0.313 | <0.156 | 0.313 | CCCCCCCCCC(=O)N[C@@H](Cc1cn(C)c2ccccc12)C(=O)N[C@H](CC(N)=O)C(=O)N[C@@H](CC(=O)O)C(=O)N[C@@H]1C(=O)NCC(=O)N[C@@H](CCCN)C(=O)N[C@@H](CC(=O)O)C(=O)N[C@H](C)C(=O)N[C@@H](CC(=O)O)C(=O)NCC(=O)N[C@H](CO)C(=O)N[C@@H]([C@H](C)CC(=O)O)C(=O)N[C@@H](CC(=O)c2cc(Br)ccc2NCC)C(=O)O[C@@H]1C [RP008] | – |
| 0.313 | 1.25 | <0.156 | 0.625 | CCCCCCCCCC(=O)N[C@@H](Cc1c[nH]c2ccc(C)cc12)C(=O)N[C@H](CC(N)=O)C(=O)N[C@@H](CC(=O)O)C(=O)N[C@@H]1C(=O)NCC(=O)N[C@@H](CCCN)C(=O)N[C@@H](CC(=O)O)C(=O)N[C@H](C)C(=O)N[C@@H](CC(=O)O)C(=O)NCC(=O)N[C@H](CO)C(=O)N[C@@H]([C@H](C)CC(=O)O)C(=O)N[C@@H](CC(=O)c2ccccc2NCC)C(=O)O[C@@H]1C [RP011] | – |
| 0.625 | 5.0 | 0.625 | 1.25 | CCCCCCCCCC(=O)N[C@@H](Cc1c[nH]c2ccccc12)C(=O)N[C@H](CC(N)=O)C(=O)N[C@@H](CC(=O)O)C(=O)N[C@@H]1C(=O)NCC(=O)N[C@@H](CCCN)C(=O)N[C@@H](CC(=O)O)C(=O)N[C@H](C)C(=O)N[C@@H](CC(=O)O)C(=O)NCC(=O)N[C@H](CO)C(=O)N[C@@H]([C@H](C)CC(=O)O)C(=O)N[C@@H](CC(=O)c2ccccc2NCC)C(=O)O[C@@H]1C [RP001] | – |
| <0.156 | <0.156 | <0.156 | <0.156 | CCCCCCCCCC(=O)N[C@@H](Cc1c[nH]c2ccc(F)cc12)C(=O)N[C@H](CC(N)=O)C(=O)N[C@@H](CC(=O)O)C(=O)N[C@@H]1C(=O)NCC(=O)N[C@@H](CCCN)C(=O)N[C@@H](CC(=O)O)C(=O)N[C@H](C)C(=O)N[C@@H](CC(=O)O)C(=O)NCC(=O)N[C@H](CO)C(=O)N[C@@H]([C@H](C)CC(=O)O)C(=O)N[C@@H](CC(=O)c2cc(Cl)cc(Cl)c2NCC)C(=O)O[C@@H]1C [RP005] | potency relative to daptomycin against MRSA [6]: roughly 10 fold; potency relative to daptomycin against Vancomycin-Resistant Enterococci (VRE) [8]: roughly 10 fold |
| <0.156 | <0.156 | <0.156 | <0.156 | CCCCCCCCCC(=O)N[C@@H](Cc1c[nH]c2ccc(C)cc12)C(=O)N[C@H](CC(N)=O)C(=O)N[C@@H](CC(=O)O)C(=O)N[C@@H]1C(=O)NCC(=O)N[C@@H](CCCN)C(=O)N[C@@H](CC(=O)O)C(=O)N[C@H](C)C(=O)N[C@@H](CC(=O)O)C(=O)NCC(=O)N[C@H](CO)C(=O)N[C@@H]([C@H](C)CC(=O)O)C(=O)N[C@@H](CC(=O)c2cc(Cl)cc(Cl)c2NCC)C(=O)O[C@@H]1C [RP012] | potency relative to daptomycin against MRSA [6]: roughly 10 fold; potency relative to daptomycin against Vancomycin-Resistant Enterococci (VRE) [8]: roughly 10 fold |

More lines, now with the values behind:

| Structure (SMILES) | Minimum Inhibitory Concentration (MIC) VSE (ATCC 29212) [1] [µM] | Minimum Inhibitory Concentration (MIC) VSE (ATCC 1056) [2] [µM] | Minimum Inhibitory Concentration (MIC) VRE (ATCC 51299) [3] [µM] | Minimum Inhibitory Concentration (MIC) VRE (ATCC 700221) [4] [µM] | other results |
| --- | --- | --- | --- | --- | --- |
| COc1cccc(OC)c1C(=O)N[C@@H]1C(=O)N2[C@@H]1SC(C)(C)[C@@H]2C(=O)O [Methicillin] | – | – | – | – | MIC [5]: > 64 µg/mL; MIC ([6]; Staphylococcus aureus, Test A, read-out: Minimum Inhibitory Concentration (MIC) MRSA (ATCC33591)): > 64 µg/mL; MIC ([7]; Test A): < 1 µg/mL; MIC ([7]; Test B): < 1 µg/mL |
| CN[C@H](CC(C)C)C(=O)N[C@H]1C(=O)N[C@@H](CC(N)=O)C(=O)N[C@H]2C(=O)N[C@H]3C(=O)N[C@H](C(=O)N[C@H](C(=O)O)c4cc(O)cc(O)c4-c4cc3ccc4O)[C@H](O)c3ccc(c(Cl)c3)Oc3cc2cc(c3O[C@@H]2O[C@H](CO)[C@@H](O)[C@H](O)[C@H]2O[C@H]2C[C@](C)(N)[C@H](O)[C@H](C)O2)Oc2ccc(cc2Cl)[C@H]1O [Vacomycin, reference compound] | – | – | – | – | MIC ([1]; Enterococcus faecalis, ATCC29212, read-out: Minimum Inhibitory Concentration (MIC) VSE (ATCC 29212)): 1.25 µM (≈ 1.81 µg/mL); MIC ([2]; Enterococcus hirae, ATCC1056, read-out: Minimum Inhibitory Concentration (MIC) VSE (ATCC 1056)): 0.313 µM (≈ 0.454 µg/mL); MIC ([3]; Enterococcus, read-out: Minimum Inhibitory Concentration (MIC) VRE (ATCC 51299)): > 10 µM; MIC ([4]; Enterococcus, read-out: Minimum Inhibitory Concentration (MIC) VRE (ATCC 700221)): > 10 µM |
| CCCCCCCCCC(=O)N[C@@H](Cc1c[nH]c2ccccc12)C(=O)N[C@H](CC(N)=O)C(=O)N[C@@H](CC(=O)O)C(=O)N[C@@H]1C(=O)NCC(=O)N[C@@H](CCCN)C(=O)N[C@@H](CC(=O)O)C(=O)N[C@H](C)C(=O)N[C@@H](CC(=O)O)C(=O)NCC(=O)N[C@H](CO)C(=O)N[C@@H]([C@H](C)CC(=O)O)C(=O)N[C@@H](CC(=O)c2ccccc2N)C(=O)O[C@@H]1C [Daptomycin, reference compound] | 1.25 | 5.0 | 1.25 | 2.5 | – |

Reference: patent US10072045B1, “Antibacterial lipopeptides and methods for their preparation and use” (priority 2017, dated 2018)
